Measured values published in ChEMBL document CHEMBL3045653, “A novel amino acid substitution Ala-122-Tyr in ALS confers high-level and broad resistance across ALS-inhibiting herbicides” (Pest Manag Sci, 2012).
Calls of active or inactive are those of the source. The calls are words filed in the database; no cut-off is given here.

Legend:
[1] = target: Acetolactate synthase (Raphanus raphanistrum, UniProt J7HAW4, A122Y); test: Inhibition of ALS Ala122Tyr mutant in ALS-herbicide-resistant Raphanus raphanistrum WARR30 (wild radish) expressing ALS Ala122Tyr mutant; settings: read-out: I50
[2] = tested on: Raphanus raphanistrum; test: Herbicidal activity against two to three leaf stage ALS-herbicide-susceptible Raphanus raphanistrum WARR7 (wild radish) assessed as reduction in dry weight of above-ground biomass measured 3 weeks after compound treatment; format: functional
[3] = tested on: Raphanus raphanistrum; test: Herbicidal activity against two to three leaf stage ALS-herbicide-resistant Raphanus raphanistrum WARR30 (wild radish) expressing ALS Ala122Tyr mutant assessed as reduction in survival measured 3 weeks after compound treatment; format: functional
[4] = tested on: Raphanus raphanistrum; test: Resistance index, ratio of I50 for ALS Ala122Tyr mutant in ALS-herbicide-resistant Raphanus raphanistrum WARR30 (wild radish) expressing ALS Ala122Tyr mutant to I50 for ALS-herbicide-susceptible Raphanus raphanistrum (wild radish)
[5] = target: T1, Acetolactate synthase (Raphanus raphanistrum, UniProt J7HAW4); test: Inhibition of ALS in ALS-herbicide-susceptible Raphanus raphanistrum […] (wild radish); settings: pooled result: one value given for 2 cell lines, strains, targets or settings; read-out: I50
T1 sequence (J7HAW4 whole entry): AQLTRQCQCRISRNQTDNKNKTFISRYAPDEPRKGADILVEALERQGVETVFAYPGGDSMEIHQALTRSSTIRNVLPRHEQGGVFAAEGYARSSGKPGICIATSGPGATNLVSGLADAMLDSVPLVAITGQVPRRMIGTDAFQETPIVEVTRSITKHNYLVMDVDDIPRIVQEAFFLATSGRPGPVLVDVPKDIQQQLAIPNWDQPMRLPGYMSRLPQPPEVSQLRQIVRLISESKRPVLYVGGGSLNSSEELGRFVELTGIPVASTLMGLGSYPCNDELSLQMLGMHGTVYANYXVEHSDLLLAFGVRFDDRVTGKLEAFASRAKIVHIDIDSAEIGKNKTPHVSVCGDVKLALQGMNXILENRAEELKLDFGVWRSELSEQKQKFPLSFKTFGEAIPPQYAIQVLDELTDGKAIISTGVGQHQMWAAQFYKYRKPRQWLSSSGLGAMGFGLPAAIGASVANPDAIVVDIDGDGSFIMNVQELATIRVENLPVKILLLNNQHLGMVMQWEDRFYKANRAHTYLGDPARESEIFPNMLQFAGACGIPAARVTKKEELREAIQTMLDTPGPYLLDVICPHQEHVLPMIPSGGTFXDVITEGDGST

[6] = tested on: Raphanus raphanistrum; test: Herbicidal activity against two to three leaf stage ALS-herbicide-resistant Raphanus raphanistrum WARR30 (wild radish) expressing ALS Ala122Tyr mutant assessed as reduction in dry weight of above-ground biomass measured 3 weeks after compound treatment; format: functional
[7] = tested on: Raphanus raphanistrum; test: Herbicidal activity against two to three leaf stage ALS-herbicide-susceptible Raphanus raphanistrum WARR7 (wild radish) assessed as reduction in survival measured 3 weeks after compound treatment; format: functional
[8] = tested on: Raphanus raphanistrum; test: Herbicidal activity against two to three-leaf stage ALS-herbicide-resistant Raphanus raphanistrum WARR30 (wild radish) expressing ALS Ala122Tyr mutant assessed as reduction in survival at 20 g/ha measured 3 weeks after compound treatment; format: functional; settings: WARR30, 504 h, read-out: GI
[9] = tested on: Raphanus raphanistrum; test: Herbicidal activity against two to three-leaf stage ALS-herbicide-resistant Raphanus raphanistrum WARR30 (wild radish) expressing ALS Ala122Tyr mutant assessed as reduction in survival at 640 g/ha measured 3 weeks after compound treatment; format: functional, organism-based
[10] = tested on: Raphanus raphanistrum; test: Herbicidal activity against two to three-leaf stage ALS-herbicide-susceptible Raphanus raphanistrum WARR7 (wild radish) assessed as reduction in survival at 0.625 g/ha measured 3 weeks after compound treatment; format: functional; settings: WARR7, 504 h, read-out: GI
[11] = tested on: Raphanus raphanistrum; test: Herbicidal activity against two to three-leaf stage ALS-herbicide-susceptible Raphanus raphanistrum WARR7 (wild radish) assessed as reduction in survival at 62 g/ha measured 3 weeks after compound treatment; format: functional, organism-based
[12] = tested on: Raphanus raphanistrum; test: Resistance index, ratio of GR50 for ALS-herbicide-resistant Raphanus raphanistrum WARR30 (wild radish) expressing ALS Ala122Tyr mutant to GR50 for ALS-herbicide-susceptible Raphanus raphanistrum (wild radish) WARR7; format: functional
[13] = tested on: Raphanus raphanistrum; test: Herbicidal activity against two to three-leaf stage ALS-herbicide-resistant Raphanus raphanistrum WARR30 (wild radish) expressing ALS Ala122Tyr mutant assessed as reduction in survival at 1600 g/ha measured 3 weeks after compound treatment; format: functional; settings: WARR30, 504 h, read-out: GI
[14] = tested on: Raphanus raphanistrum; test: Resistance index, ratio of LD50 for ALS-herbicide-resistant Raphanus raphanistrum WARR30 (wild radish) expressing ALS Ala122Tyr mutant to LD50 for ALS-herbicide-susceptible Raphanus raphanistrum (wild radish) WARR7; format: functional
[15] = tested on: Raphanus raphanistrum; test: Herbicidal activity against two to three-leaf stage ALS-herbicide-susceptible Raphanus raphanistrum WARR7 (wild radish) assessed as reduction in survival at 50 g/ha measured 3 weeks after compound treatment; format: functional, organism-based
[16] = tested on: Raphanus raphanistrum; test: Herbicidal activity against two to three-leaf stage ALS-herbicide-resistant Raphanus raphanistrum WARR30 (wild radish) expressing ALS Ala122Tyr mutant assessed as reduction in survival at 384 g/ha measured 3 weeks after compound treatment; format: functional; settings: WARR30, 504 h, read-out: GI
[17] = tested on: Raphanus raphanistrum; test: Herbicidal activity against two to three-leaf stage ALS-herbicide-susceptible Raphanus raphanistrum WARR7 (wild radish) assessed as reduction in survival at 0.75 g/ha measured 3 weeks after compound treatment; format: functional; settings: WARR7, 504 h, read-out: GI

Compound	IC50 [1]	Activity [2]	Activity [3]	Ratio [4]	IC50 [5]	Activity [6]	Activity [7]	GR50 [2]	LD50 [3]	GR50 [6]	LD50 [7]	Ratio [12]	Ratio [14]	further results
Cc1ccn2nc(S(=O)(=O)Nc3c(F)cccc3F)nc2n1	> 100 µM	Active	inactive	> 60	1.66 µM	inactive	Active							
COc1nc(C)nc(NC(=O)NS(=O)(=O)c2ccccc2Cl)n1 [CHLORSULFURON]								<0.625 g/ha	>640 g/ha	>640 g/ha	<0.625 g/ha			inhibition of growth at 20 g/ha [8]: 15%; Activity [9]: inactive; inhibition of growth at 0.625 g/ha [10]: 72%
COCc1cnc(C2=NC(C)(C(C)C)C(=O)N2)c(C(=O)O)c1 (centres undefined) [IMAZAMOX]	> 100 µM			> 21	4.78 µM			<6.3 g/ha	>1600 g/ha	>1600 g/ha	11.7 g/ha	>256	>137	Activity [11]: Active; inhibition of growth at 1600 g/ha [13]: 20%
CC(C)C1(C)N=C(c2ncccc2C(=O)O)NC1=O (centres undefined) [IMAZAPYR]	> 100 µM			> 14.6	6.84 µM			<63 g/ha	1000 g/ha	486 g/ha	<63 g/ha	>7.8	>16	Activity [15]: Active
CCc1cnc(C2=NC(C)(C(C)C)C(=O)N2)c(C(=O)O)c1 (centres undefined) [IMAZETHAPYR]	> 1000 µM	Active	inactive	> 741	1.35 µM	inactive	Active							
COc1cc(OC)n2nc(S(=O)(=O)Nc3c(Cl)ccc(C)c3Cl)nc2n1 [METOSULAM]	94 µM			> 94500	< 0.001 µM			<0.75 g/ha	>384 g/ha	>384 g/ha	<0.75 g/ha	>512	>512	inhibition of growth at 384 g/ha [16]: 10%; inhibition of growth at 0.75 g/ha [17]: 95%
Cc1cc(C)nc(NC(=O)NS(=O)(=O)c2ccccc2C(=O)O)n1 [SULFOMETURON]	> 100 µM	Active	inactive	> 4350		inactive	Active							
